Patent publication US11312727B1, “Macrocyclic flu endonuclease inhibitors” (Janssen BioPharma, Inc., priority 2018, dated 2022)

What was measured:
in vitro = conditions: human, CC50, uninfected A549 cells, CellTiter-Glo
[1] = tested on: Influenza strain A549 A/WSN/33 (H1N1); assay: microbe, parasite or virus in culture; type: cell-based; conditions: Influenza A virus, A549, 20 h, A549 cells, influenza A/WSN/33 (H1N1), 20 hours incubation; read-out: A549_A(H1N1) EC50

| SMILES | CC50 (in vitro) | EC50 [1] |
| --- | --- | --- |
| O=C1c2c(O)c(=O)ccn2N2CN1C/C=C\COc1ccccc1[C@@H]2c1cccnc1 (single isomer, unassigned) [Compound 26B, (18*S,*Z)-12-hydroxy-18-(pyridin-3-yl)-6,9-dihydro-18H-10,17-methanobenzo[b]pyrido[1,2-f][1]oxa[5,6,9]triazacyclotridecine-11,13-dione] | > 4000 nM | 40100 nM |
| O=C1c2c(O)c(=O)ccn2N2CN1C/C=C\COc1cccnc1[C@H]2c1ccccc1 (single isomer, unassigned) [Compound 27A, (18*R,*Z)-12-hydroxy-18-phenyl-6,9-dihydro-18H-10,17-methanodipyrido[3,2-b:1′,2′-f][1]oxa[5,6,9]triazacyclotridecine-11,13-dione] | > 2000 nM | 94 nM |
| O=C1c2c(O)c(=O)ccn2N2CN1C/C=C\COc1cccnc1[C@@H]2c1ccccc1 (single isomer, unassigned) [Compound 27B, (18*S,*Z)-12-hydroxy-18-phenyl-6,9-dihydro-18H-10,17-methanodipyrido[3,2-b:1′,2′-f][1]oxa[5,6,9]triazacyclotridecine-11,13-dione] | > 20000 nM | 45700 nM |
| O=C1c2c(O)c(=O)ccn2N2CN1CC/C=C\COc1cccc3c1[C@H]2c1ccccc1CC3 (single isomer, unassigned) [Compound 28A] | > 20000 nM | 5950 nM |
| O=C1c2c(O)c(=O)ccn2N2CN1CC/C=C\COc1cccc3c1[C@@H]2c1ccccc1CC3 (single isomer, unassigned) [Compound 28B] | > 400 nM | 6 nM |
| C[C@@H]1/C=C/COc2ccccc2[C@@H](c2ccccc2)N2CN1C(=O)c1c(O)c(=O)ccn12 (single isomer, unassigned) [Compound 29AA, (9*R, 18*R, E)-12-hydroxy-9-methyl-18-phenyl-6,9-dihydro-18H-10,17-methanobenzo[b]pyrido[1,2-f][1]oxa[5,6,9]triazacyclotridecine-11,13-dione] | > 2000 nM | > 3000 nM |
| C[C@H]1/C=C/COc2ccccc2[C@@H](c2ccccc2)N2CN1C(=O)c1c(O)c(=O)ccn12 (single isomer, unassigned) [Compound 29AB, (9*S, 18*R, E)-12-hydroxy-9-methyl-18-phenyl-6,9-dihydro-18H-10,17-methanobenzo[b]pyrido[1,2-f][1]oxa[5,6,9]triazacyclotridecine-11,13-dione] | > 200 nM | 5.7 nM |
| C[C@@H]1/C=C/COc2ccccc2[C@H](c2ccccc2)N2CN1C(=O)c1c(O)c(=O)ccn12 (single isomer, unassigned) [Compound 29BA, (9*R, 18*S, E)-12-hydroxy-9-methyl-18-phenyl-6,9-dihydro-18H-10,17-methanobenzo[b]pyrido[1,2-f][1]oxa[5,6,9]triazacyclotridecine-11,13-dione] | 83100 nM | 1710 nM |
| C[C@H]1/C=C/COc2ccccc2[C@H](c2ccccc2)N2CN1C(=O)c1c(O)c(=O)ccn12 (single isomer, unassigned) [Compound 29BB, (9*S, 18*S, E)-12-hydroxy-9-methyl-18-phenyl-6,9-dihydro-18H-10,17-methanobenzo[b]pyrido[1,2-f][1]oxa[5,6,9]triazacyclotridecine-11,13-dione] | > 2000 nM | 8 nM |
| O=C1c2c(O)c(=O)ccn2N2CN1CCCCOc1ccc(F)cc1[C@H]2c1ccccc1 (single isomer, unassigned) [Compound 30A, (18*R)-2-fluoro-12-hydroxy-18-phenyl-6,7,8,9-tetrahydro-18H-10,17-methanobenzo[b]pyrido[1,2-f][1]oxa[5,6,9]triazacyclotridecine-11,13-dione] | > 2000 nM | > 1000 nM |
| O=C1c2c(O)c(=O)ccn2N2CN1CCCCOc1ccc(F)cc1[C@@H]2c1ccccc1 (single isomer, unassigned) [Compound 30B, (18*S)-2-fluoro-12-hydroxy-18-phenyl-6,7,8,9-tetrahydro-18H-10,17-methanobenzo[b]pyrido[1,2-f][1]oxa[5,6,9]triazacyclotridecine-11,13-dione] | > 2000 nM | 15 nM |
| O=C1c2c(O)c(=O)ccn2N2CN1CCCCOc1ccc(F)cc1[C@H]2c1cccc(F)c1 (single isomer, unassigned) [Compound 32A, (18*R)-2-fluoro-18-(3-fluorophenyl)-12-hydroxy-6,7,8,9-tetrahydro-18H-10,17-methanobenzo[b]pyrido[1,2-f][1]oxa[5,6,9]triazacyclotridecine-11,13-dione] | > 2000 nM | > 1000 nM |
| O=C1c2c(O)c(=O)ccn2N2CN1CCCCOc1ccc(F)cc1[C@@H]2c1cccc(F)c1 (single isomer, unassigned) [Compound 32B, (18*S)-2-fluoro-18-(3-fluorophenyl)-12-hydroxy-6,7,8,9-tetrahydro-18H-10,17-methanobenzo[b]pyrido[1,2-f][1]oxa[5,6,9]triazacyclotridecine-11,13-dione] | > 2000 nM | 25 nM |
| O=C1c2c(O)c(=O)ccn2N2CN1C/C=C\COc1cccc3c1[C@H]2c1ccccc1CC3 (single isomer, unassigned) [Compound 33A, (19b*R,Z)-4-hydroxy-7,10,15,19b-tetrahydro-14H-13,12-(epiprop[1]en[1]yl[3]ylidene)-6,20-methanobenzo[3,4]cyclohepta[1,2-c]pyrido[1,2-f][1]oxa[5,6,9]triazacyclotridecine-3,5-dione] | > 2000 nM | > 1000 nM |
| O=C1c2c(O)c(=O)ccn2N2CN1C/C=C\COc1cccc3c1[C@@H]2c1ccccc1CC3 (single isomer, unassigned) [Compound 33B, (19b*S,Z)-4-hydroxy-7,10,15,19b-tetrahydro-14H-13,12-(epiprop[1]en[1]yl[3]ylidene)-6,20-methanobenzo[3,4]cyclohepta[1,2-c]pyrido[1,2-f][1]oxa[5,6,9]triazacyclotridecine-3,5-dione] | > 2000 nM | 15 nM |
| O=C1c2c(O)c(=O)ccn2N2CN1CCCCCc1ccncc1[C@H]2c1ccccc1 (single isomer, unassigned) [Compound 34A, (18*R)-12-hydroxy-18-phenyl-5,6,7,8,9,18-hexahydro-10,17-methanodipyrido[1,2-b:4′,3′-k][1,2,5]triazacyclotridecine-11,13-dione] | > 2000 nM | 59 nM |
| O=C1c2c(O)c(=O)ccn2N2CN1CCCCCc1ccncc1[C@@H]2c1ccccc1 (single isomer, unassigned) [Compound 34B, (18*S)-12-hydroxy-18-phenyl-5,6,7,8,9,18-hexahydro-10,17-methanodipyrido[1,2-b:4′,3′-k][1,2,5]triazacyclotridecine-11,13-dione] | > 2000 nM | > 1000 nM |
| O=C1c2c(O)c(=O)ccn2N2CN1C/C=C\CCc1ccncc1[C@H]2c1ccccc1 (single isomer, unassigned) [Compound 35A, (18*R,*Z)-12-hydroxy-18-phenyl-5,6,9,18-tetrahydro-10,17-methanodipyrido[1,2-b:4′,3′-k][1,2,5]triazacyclotridecine-11,13-dione] | > 2000 nM | 69 nM |
| O=C1c2c(O)c(=O)ccn2N2CN1C/C=C\CCc1ccncc1[C@@H]2c1ccccc1 (single isomer, unassigned) [Compound 35B, (18*S,*Z)-12-hydroxy-18-phenyl-5,6,9,18-tetrahydro-10,17-methanodipyrido[1,2-b:4′,3′-k][1,2,5]triazacyclotridecine-11,13-dione] | > 2000 nM | > 1000 nM |
| O=C1c2c(O)c(=O)ccn2N2CN1C/C=C\COc1ccccc1[C@@H]2c1ccccc1F (single isomer, unassigned) [Compound 36A, (18*R,Z)-18-(2-fluorophenyl)-12-hydroxy-6,9-dihydro-18H-10,17-methanobenzo[b]pyrido[1,2-f][1]oxa[5,6,9]triazacyclotridecine-11,13-dione] | > 2000 nM | 15 nM |
| O=C1c2c(O)c(=O)ccn2N2CN1C/C=C\COc1ccccc1[C@H]2c1ccccc1F (single isomer, unassigned) [Compound 36B, (18*S,Z)-18-(2-fluorophenyl)-12-hydroxy-6,9-dihydro-18H-10,17-methanobenzo[b]pyrido[1,2-f][1]oxa[5,6,9]triazacyclotridecine-11,13-dione] | > 2000 nM | 815 nM |
| O=C1c2c(O)c(=O)ccn2N2CN1CC/C=C\COc1cccc3c1[C@@H]2c1ccccc1SC3 (single isomer, unassigned) [Compound 37A, (1*R,13Z)-7-hydroxy-16-oxa-23-thia-2,3,10-triazahexacyclo[15.12.1.12,10.03,8.021,30.024,29]hentriaconta-4,7,13,17,19,21(30),24(29),25,27-nonaene-6,9-dione] | > 2000 nM | 12200 nM |
| O=C1c2c(O)c(=O)ccn2N2CN1CC/C=C\COc1cccc3c1[C@H]2c1ccccc1SC3 (single isomer, unassigned) [Compound 37B, (1*S,13Z)-7-hydroxy-16-oxa-23-thia-2,3,10-triazahexacyclo[15.12.1.12,10.03,8.021,30.024,29]hentriaconta-4,7,13,17,19,21(30),24(29),25,27-nonaene-6,9-dione] | > 200 nM | 4 nM |
| O=C1c2c(O)c(=O)ccn2N2CN1CC/C=C/COc1cccc3c1[C@@H]2c1ccccc1SC3 (single isomer, unassigned) [Compound 37C] | > 2000 nM | > 1000 nM |
| O=C1c2c(O)c(=O)ccn2N2CN1CC/C=C/COc1cccc3c1[C@H]2c1ccccc1SC3 (single isomer, unassigned) [Compound 37D, (1*S,13E)-7-hydroxy-16-oxa-23-thia-2,3,10-triazahexacyclo[15.12.1.12,10.03,8.021,30.024,29]hentriaconta-4,7,13,17,19,21(30),24(29),25,27-nonaene-6,9-dione] | > 200 nM | 1 nM |
